Data as given in US8093273B2, “Flavanoids and isoflavanoids for the prevention and treatment of cardiovascular diseases” (Resverlogix Corp., priority 2004, dated 2012).
In brackets after ≈: the same amount, converted by molar mass. Read-outs that look alike come from different tables or passages of the source.

Key:
[1] = test system: human ApoA-I promoter; test: ApoA-I promoter induction in HepG2 liver cells (pAI.474-Luc luciferase reporter); assay type: cell-based; conditions: average values at 15 μM, 48 hours incubation
Procedure: This study determined whether compounds of the invention have an effect on ApoA-I promoter activity expression in HepG2 cells, a liver cell line. Cells were grown under conditions recommended by the ATCC and summarized by Wong.
The promoter region of the gene encoding human ApoA-I was isolated and ligated upstream the structure gene of firefly luciferase to construct a reporter plasmid (pAI.474-Luc). The reporter plasmid, along with pRSV-β-galactosidase (as a control for transfection efficiency), were co-transfected into HepG2 cells. The cells were then incubated in an MEM selection media containing 20% fetal calf serum supplemented with G418 (final concentration: 0.5 mg/mL, Gibco) to give established strains that stably express from the reporter gene. The strains were seeded to a 6-well culture plates and incubated for 48 hours at 37° C. under 5% carbon dioxide. Cells were starved for 24 hrs in MEM selection media containing 0.5% FBS. Then, a solution of the compounds of the invention in DMSO (or other appropriate solvent) was added to the wells at a final concentration of 0 to 100 μM in MEM selection media containing 0.5% FBS.
After further incubation for 48 hours, the cells were harvested and lysed using Reporter Lysis Buffer (PROMEGA E3971), and 50 μL of luciferase assay reagent (PROMEGA E4550 Luciferase Reporter 1000 assay system) were added to measure luciferase activity with a luminometer (Fluoroskan Ascent FL from Thermo electron Corporation). Luciferase activity was normalized to lysate protein concentrations, measured using Bradford Reagent (Biorad Protein Assay reagent Cat #500-0006).

[2] = Caco-2 permeability; assay type: in vitro ADME, human; conditions: human, Caco-2
Description: The Caco-2 cell drug transport model is widely used for screening compounds in drug discovery to assess intestinal transport and predict absorption rates.

[3] = test system: human ApoA-I promoter; test: ApoA-I promoter induction in Caco-2 intestinal cells (pAI.474-Luc luciferase reporter); assay type: cell-based; conditions: Caco-2 cells, 15 μM, 48 hours incubation, luciferase activity vs control samples
How it was run: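 Caco-2 cells stably carrying the human ApoA-I promoter–firefly luciferase construct (pAI.474-Luc) were starved 24 h in 0.5% FBS medium, then exposed to compound at 0 to 100 μM final for 48 h at 37° C. Luciferase activity in lysates was normalized to Bradford protein and compared with solvent-only and untreated controls.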

[4] = Solubility analysis in PBS (HPLC-UV); assay type: physicochemical; conditions: aqueous buffer, thermodynamic from solid; 1 mg in 1 mL PBS, sonicated 1 hour, 25° C. for 3 hrs
Procedure: Samples were then centrifuged at 14,000 rpm for 6 minutes at room temperature. The supernatant was diluted with acetonitrile and was removed for analysis. Analysis was performed using HPLC-UV with 7-point standard curve to determine the concentration. The average concentration calculated is regarded as the solubility (μM).

[5] = test system: hApoA-I transgenic mice; test: hApoA-I transgenic mice, oral gavage for 14 days; assay type: in vivo; conditions: for change in vivo at 10 mg/kg: Mus musculus, po, 336 h, 10 mg/kg BID 14 days, relative to pretreatment, read-out: ApoA-I (% change)
Description: To test whether the efficacy of compounds of the invention observed in vitro extended to an in vivo model, transgenic mice carrying multiple copies of the human ApoA-I gene (C57BI/6-tgn(apoa1)1 rub, Jackson Laboratory, Bar Harbor, Me.) were exposed to representative compounds of the invention. The exogenous human ApoA-I gene in these mice enables them to express the human ApoA-I protein under the control of this promoter.
Seven to eight week old male mice, transgenic for human ApoA-I were housed five per cage (10″×20″×8″ with aspen chip bedding) with pelleted Rodent chow [Purina 5001] and water available at all times. After an acclimation period of 1 week, animals were individually identified by numbering on tail and weighed. Mice were pre bled via the retro-orbital plexus, and 150 μl of blood was collected in 1.5 ml Eppendorf tube containing 1 μl of heparin and chilled on ice. Plasma was collected after centrifuging the whole blood at 14000 rpm [TOMY high speed micro-refrigerated centrifuge NTX-150] for 10 minutes at 4° C. and frozen at −80° C. Plasma was analyzed for: human ApoA-I by a human ApoA-I enzyme-linked Immunoassay [Direct Sandwich ELISA Calbiochem Cat#178422, Calbiochem Cat#178452, lot #B9076, Calbiochem Cat #178470 conjugated to Horse Radish Peroxidase (Cedarlane Cat#80220)]; total cholesterol [Ponte scientific reagents: # C7509-STD, #L7580-18, # C7510]; and triglyceride [Pointe Scientific Reagents: # 7532-STD, # L7580-18, #7532]. All samples were measured in triplicates and expressed as mg/dl. Mice were grouped based on the above plasma parameters and having an average body weight of 25 gm.
Two days following pre-bleed, mice were dosed by oral gavage daily for 14 days using a 20 gauge, 11/2″ curved disposable feeding needle [Popper & Sons]; when BID, mice were gavaged morning and afternoon (8 am and 5 pm); when SID mice were gavaged in morning (8 am). Compounds were prepared each day in vehicle. Test article(s), a positive control fenofibrate, and vehicle were dosed at volume of 5 mL/kg of body weight as a suspension (0.1 mL/20 g mouse). Fenofibrate was obtained commercially [SIGMA #F 6020]. Mice weights were recorded on day 1, 4, 7, 10, 12, and 15. On day 15, mice were weighed and fasted for 4 hours, sacrificed by inhalation of CO2 and blood was obtained via cardiac puncture (0.7-1.0 ml). Plasma was collected and frozen at −80° C. Samples were assayed for ApoA-I, total cholesterol, triglyceride and HDL-C by HPLC [Polaris 200 with an auto sampler Prostar 410 from Varian on a Superose 6 10/30 column from Amersham]. Samples were sent for NMR analysis [LipoScience] to identify particle size and subclass for lipoproteins. During necropsy, liver, brown fat, and the whole of small and large intestines were collected, cleaned with cold PBS and frozen at −80° C. for further analysis of compound levels. Variation between studies, in ApoA-I changes, was observed. Therefore, a relative comparison between individual(s) in the study groups was used.
4′-hydroxyflavone (10 mg/kg of body weight), 4-(4-oxo-4H-chromen-2-yl)phenyl nicotinate (Example 71) (10 mg/kg of body weight) and fenofibrate (100 mg/kg of body weight) were BID administered to hApoA-I transgenic mice daily for fourteen days by oral gavage in 0.5% Methylcellulose (w/v)/1% Tween 80 (w/v). Plasma was assayed for ApoA-I (FIG. 3A), HDL cholesterol and total cholesterol (FIG. 3B) and percent weight gain (FIG. 3C).
4′-hydroxyflavone (3 mg/kg of body weight), 4′-hydroxyflavone (10 mg/kg of body weight), 4′-hydroxyflavone (30 mg/kg of body weight), 2-(4-Hydroxy-phenyl)-pyrano[2,3-b]pyridin-4-one (10 mg/kg of body weight), and fenofibrate (100 mg/kg of body weight) were BID administered to hApoA-I transgenic mice daily for fourteen days by oral gavage in 0.5% methylcellulose (w/v)/1% Tween 80 (w/v). In this experiment plasma was assayed for ApoA-I. […]

[6] = Table 6 fourth group, Control 3 1.11

| SMILES | ApoA-I Promoter Induction [1] | Papp [2] | melting point | ApoA-I Promoter Induction [3] | solubility at 3 h [4] | change in vivo at 10 mg/kg ([5]; Table 6 second group, Control 1 3.42) | change in vivo at 10 mg/kg [5, 6] | plasma ApoA-I, net % change over vehicle ([5]; Experiment A, 10 mg/kg BID oral gavage, 14 days, 0.5% methylcellulose/1% Tween 80) | liver weight gain normalized to body weight, compared to vehicle ([5]; Experiment A, 10 mg/kg BID, day 15, male mice) |
| --- | --- | --- | --- | --- | --- | --- | --- | --- | --- |
| Nc1cc(O)ccc1-c1cc(=O)c2ccccc2o1 [Example 3, 2-(2-amino-4-hydroxy-phenyl)-chromen-4-one] | increased | 74.2 nm/s |  |  |  |  |  |  |  |
| O=c1cc(-c2ccc(O)cc2)oc2ccc(CO)cc12 [Example 11, 6-Hydroxymethyl-2-(4-hydroxyphenyl)chromen-4-one] | increased |  | 246 to 247 °C |  |  |  |  |  |  |
| O=c1cc(-c2ccc(O)c(F)c2)oc2ccccc12 [Example 12, 2-(3-Fluoro-4-hydroxyphenyl)chromen-4-one] | increased |  | 275 to 276 °C |  |  |  |  |  |  |
| O=c1cc(-c2ccc(CO)cc2)oc2ccc(O)cc12 [Example 14, 6-Hydroxy-2-(4-hydroxymethylphenyl)chromen-4-one] | increased |  | 262 to 265 °C |  |  |  |  |  |  |
| O=c1cc(-c2ccc(O)c(F)c2)oc2ccc(CO)cc12 [Example 33, 2-(3-fluoro-4-hydroxyphenyl)-6-(hydroxymethyl)-4H-chromen-4-one] |  |  | 256 to 258 °C | increased | 51.4 µM (≈ 14.7 µg/mL) |  |  |  |  |
| O=c1cc(-c2ccc(O)c(F)c2)oc2ncccc12 [Example 37, 2-(3-fluoro-4-hydroxyphenyl)pyrano[2,3-b]pyridine-4-one] |  | 20.6 nm/s | 267 to 268 °C | increased | 194 µM (≈ 50 µg/mL) | 14.4% |  |  |  |
| O=c1cc(-c2ccc(O)cc2)oc2ccncc12 [Example 39, 2-(4-hydroxyphenyl)-4H-pyrano[3,2-c]pyridine-4-one] |  | 12.1 nm/s | 306 to 308 °C | increased | 31.6 µM (≈ 7.56 µg/mL) |  | 11.2% |  |  |
| O=c1cc(-c2ccc(O)c(Cl)c2)oc2ncccc12 [Example 41, 2-(3-chloro-4-hydroxyphenyl)-4H-pyrano[2,3-b]pyridine-4-one] |  | 17.6 nm/s | 259 to 262 °C | increased | 84.4 µM (≈ 23.1 µg/mL) |  |  |  |  |
| O=c1cc(-c2ccc(O)c(Br)c2)oc2ncccc12 [Example 42, 2-(3-bromo-4-hydroxyphenyl)-4H-pyrano[2,3-b]pyridin-4-one] |  | 9.59 nm/s | 267 to 272 °C | increased | 52.6 µM (≈ 16.7 µg/mL) |  |  |  |  |
| COc1cc(-c2cc(=O)c3cccnc3o2)ccc1O [Example 43, 2-(4-hydroxy-3-methoxyphenyl)-4H-pyrano[2,3-b]pyridine-4-one] |  |  | 253 to 255 °C | increased | 47.1 µM (≈ 12.7 µg/mL) |  |  |  |  |
| O=c1cc(-c2ccc(OCCO)cc2)oc2ncccc12 [Example 45, 2-(4-(2-hydroxyethoxy)phenyl)-4H-pyrano[2,3-b]pyridine-4-one] |  |  | 157 to 159 °C | increased | 334 µM (≈ 94.6 µg/mL) |  |  |  |  |
| O=c1[nH]c(-c2ccc(O)cc2)cc2ccccc12 [Example 53, 3-(4-hydroxyphenyl)-2H-isoquinolin-1-one] | increased | 17.6 nm/s | 239 to 241 °C | increased | 44.9 µM (≈ 10.7 µg/mL) |  | 13.2% |  |  |
| Oc1ccc(-c2cc3ccccc3cn2)cc1 [Example 54, 4-isoquinolin-3-yl-phenol] | increased | 41.1 nm/s | 218 to 219 °C | increased |  |  |  |  |  |
| COc1cc(OC)c2c(=O)[nH]c(-c3ccc(O)cc3)cc2c1 [Example 60, 3-(4-Hydroxyphenyl)-6,8-dimethoxyisoquinolin-1(2H)-one] |  |  | 245 to 247 °C | increased | 58.2 µM (≈ 17.3 µg/mL) |  |  |  |  |
| O=C(Oc1ccc(-c2cc(=O)c3ccccc3o2)cc1)c1cccnc1 [Example 71, 4-(4-oxo-4H-chromen-2-yl)phenyl nicotinate] | increased |  |  | increased |  |  |  | 12.82% | minor changes |
| O=C(Oc1ccc(-c2cc(=O)c3c(OC(=O)c4cccnc4)cc(OC(=O)c4cccnc4)cc3o2)cc1)c1cccnc1 [Example 74, 2-(4-Nicotinoyloxy)phenyl)-oxo-4H-chromene-5,7-diyl dinicotinate] | increased |  |  | increased |  |  |  |  |  |
| O=c1cc(-c2ccc(O)c(CO)c2)oc2ncccc12 [Example 81, 2-(4-hydroxy-3-(hydroxymethyl)phenyl)-4H-pyrano[2,3-b]pyridin-4-one] |  |  | 226 to 227 °C | increased | 48.5 µM (≈ 13.1 µg/mL) |  |  |  |  |
| CNc1nc(-c2ccc(O)cc2)cc2cc(OC)cc(OC)c12.Cl [Example 82, 4-(6,8-dimethoxy-1-(methylamino)isoquinolin-3-yl)phenol hydrochloride] |  |  | 250 to 253 °C | increased | 66.8 µM |  |  |  |  |
